According to patent US20130273649A1, “Culture medium for pluripotent stem cells” (UNIVERSITY OF SOUTHERN CALIFORNIA, priority 2012, published 2013):

How the values were obtained:
H9 human ESCs = test: Human ESC self-renewal culture; type: cell-based
Text: As human ESCs share defining features with mouse EpiSCs (Hanna et al., 2010; Rossant, 2008; Tesar et al., 2007), we tested whether modulating β-catenin function can also promote human ESC self-renewal. […] Next, we examined the effect of CHIR/XAV and CHIR/IWR-1 on human ESC self-renewal. […] Similar results were obtained in H1 and HES3 human ESCs (data not shown). […] Moreover, human ESCs maintained in CHIR/IWR-1 express pluripotency markers Oct4, Nanog and Sox2 (FIG. 7E), and retain the ability to differentiate into cells of all three germ layers, both in vitro and in vivo (FIGS. 7F and 7G).
The basal medium for mouse EpiSC culture is the conventional mouse ESC medium, which consists of GMEM (Sigma) supplemented with 10% fetal bovine serum (FBS) (Hyclone), 2 mM L-glutamine (Invitrogen), 1 mM sodium pyruvate (Invitrogen), 1% nonessential amino acids (Invitrogen), and 0.1 mM (3-mercaptoethanol. Mouse EpiSCs were derived and maintained in the basal medium supplemented with FGF2/activin, CHIR/XAV, or CHIR/IWR-1. The basal medium for rat EpiSC culture is N2B27 (Tong et al., 2011), which was prepared by mixing 500 ml of DMEM/F12 (Invitrogen) with 500 ml of Neurobasal™ medium (Invitrogen), and adding 5 ml of N2 (Invitrogen), 10 ml of B27 (Invitrogen), 5 ml of Glutamax™ (Invitrogen), and 1 ml of 0.1 M β-mercaptoethanol (Sigma). The basal medium for human ESC culture consists of Knockout™ DMEM/F12 supplemented with 20% KSR (Invitrogen), 1% nonessential amino acids, 2 mM L-glutamine, and 0.1 mM (3-mercaptoethanol. Human ESCs were cultured in the basal medium supplemented with FGF2, CHIR/XAV, or CHIR/IWR-1.
H1, H9, HES-2 and HES-3 human ESC lines were kindly provided by the University of Southern California Stem Cell Core Facility. Human ESCs were routinely maintained on γ-irradiated MEF feeders in Knockout™ DMEM medium (Invitrogen) supplemented with 20% Knockout™ serum replacement (KSR; Invitrogen), 10 ng/ml FGF2 (PeproTech), 1% nonessential amino acids, 2 mM L-glutamine, and 0.1 mM β-mercaptoethanol. […]

Axin1 = test: Western blot of Axin1 in human ESCs; type: cell-based; conditions: human ESCs treated 24 h
Protocol: (A) TOPFlash™ assay in H9 human ESCs subjected to the indicated treatments for 24 h. Data represent mean±s.d. of three biological replicates. (B) Representative phase contrast and alkaline phosphatase (AP) staining images of H9 human ESCs cultured in the indicated conditions for 3 passages. (C) Phase contrast images of H9 human ESCs cultured in CHIR/XAV or CHIR/IWR-1 for 11 passages. (D) Colony forming efficiency assay of H9 human ESCs cultured in FGF2 or CHIR/IWR-1 conditions. Data represent mean±s.d. of three biological replicates. Right panel: a representative image showing AP staining of colonies formed from H9 human ESCs cultured in either FGF2 or CHIR/IWR-1 condition. (E) Human ESCs cultured in CHIR/IWR-1 for 11 passages were immunostained with the indicated antibodies. (F) Embryoid bodies (EBs) were generated from H9 human ESCs cultured in CHIR/IWR-1 for 11 passages. The outgrowths of EBs were immunostained with the indicated antibodies. (G) H&E staining of teratomas generated from H9 ESCs cultured in CHIR/IWR-1 for 20 passages. (H) Western blot analysis of Axin1 and Axin2 expression in HES3 human ESCs treated with the indicated cytokines/inhibitors for 24 h. (I) Immunofluorescence images of H9 human ESCs (passage 5 in CHIR) overexpressing Flag-tagged Axin2. […]

Cc1c[nH]c(-c2cnc(NCCNc3ccc(C#N)cn3)nc2-c2ccc(Cl)cc2Cl)n1 [CHIR99021, 6-((2-((4-(2,4-Dichlorophenyl)-5-(4-methyl-1H-imidazol-2-yl)pyrimidin-2-yl)amino)ethyl)amino)nicotinonitrile]
self-renewal of Axin2-overexpressing human ESCs (H9 human ESCs; Axin2-hESC (H9), CHIR alone): could support stable and long-term self-renewal of Axin2-hESCs
human ESC self-renewal / differentiation (H9 human ESCs; H9 human ESCs, CHIR 3 μM, IWR-1 2.5 μM, XAV939 2 μM): induced differentiation of H9 human ESCs
amount of Axin1 protein (Axin1): not Axin1
